The values that follow come from patent US8772297B2, “TGF-β signal transduction inhibitor” (Kyoto University, priority 2010, dated 2014).

The subject of one assay is ARPE-19 cells. The assay is described as follows: Evaluation of TGF-β-induced epithelial-mesenchymal transition (EMT) inhibitory activity. The class given is cell-based. Particulars: human TGF-β2 10 ng/mL and human TNF 10 ng/mL, 2 days, Giemsa stain, FIG. 1. How it is done:
Human retinal pigment epithelial cells (ARPE-19 cells) were seeded in a 96 well plate at a concentration of 1.2×10^4 cells/well, and cultured overnight (5% CO2, 37° C.) in DMEM/F12 medium containing 10% fetal bovine serum, penicillin (100 U/mL), streptomycin (100 μg/mL) and Hepes (10 mM). The next day, the medium was changed to a serum-free medium, and a test compound was added. After 1 hr, the cells were stimulated with human TGF-β2 (10 ng/mL) and human TNF (10 ng/mL). After culture for 2 days, the cells were stained with Giemsa, and the influence of the compound on the formation of cell aggregates was evaluated.

The test system of a further assay is liver Kupffer cells. The assay is described as follows: Influence on activation of liver Kupffer cells in primary culture system. The class given is cell-based. As to conditions: rat primary culture, 7 days. As for the experimental part: Wistar rat (bred under SPF, male, 15-week-old) was subjected to laparotomy under pentobarbital anesthesia, a catheter was inserted into the portal vein, and perfusion was performed successively with a washing solution for hemorrhage, a 0.06% pronase solution (manufactured by Carbiochem), and a 0.03% collagenase (manufactured by Wako Pure Chemical Industries, Ltd.) solution. Then, the liver was isolated and incubated in a liver Kupffer cell separation buffer containing 0.057% pronase and 0.057% collagenase, and supplemented with 2 mg/mL DNaseI (1 mL, manufactured by Roche Diagnostics) in a warm bath at 36° C. for 30 min. During this period, the pH of the lysate was maintained at 7.2-7.4 with 1N NaOH. Then, the hepatic tissue digestive product was filtered through a mesh, a liver Kupffer cell separation buffer was added to the obtained filtrate to the total amount of 150 mL. The mixture was dispensed to three 50-mL polypropylene tubes, and centrifuged at 4° C., 2000 rpm for 8 min. […]
On the other hand, respective cells were washed with phosphate buffer (PBS: phosphate buffered saline) 7 days later, and fixed with 4% para-formaldehyde at room temperature for 10 min. […] Then, the cells were washed with PBST, and the α smooth muscle actin (αSMA) expression level was observed under a fluorescence microscope.

The subject of assay [1] is mouse bile duct ligation induced hepatic fibrosis model. The assay is described as follows: Anti-fibrillization action in mouse bile duct ligation induced hepatic fibrosis model (BDL model). As to conditions: ICR mice, tail vein once a day for 14 days, qPCR vs GAPDH, FIG. 4. The class given is in vivo. How it is done:
Hepatopathy caused by accumulation of bile in the liver and therewith associated liver fibrillization are induced by ligating the bile duct of mouse. The effect of the test compound on the hepatopathy and liver fibrillization associated therewith was evaluated. […]
mRNA was extracted from the hepatic tissue preserved in RNALater by using an RNA purification kit RNeasy Micro Kit (manufactured by QIAGEN), and the RNA concentration was determined using a spectrophotometer (Nano Drop). […] Using SYBR® Premix EX Taq™ (manufactured by TAKARA), a reaction mixture was prepared according to the package insert, qPCR reaction was performed using respective primers for αSMA and the internal standard GAPDH (manufactured by Invitrogen), and the mRNA expression level was quantified.

In the case of `CN(C)c1ccc(NS(=O)(=O)c2cccc(S(=O)(=O)NCC3CCN(C(=O)OC(C)(C)C)CC3)c2)cc1-c1ccco1` [Y244, 4-{[3-(4-dimethylamino-3-furan-2-yl-phenylsulfamoyl)benzenesulfonylamino]methyl}piperidine-1-carboxylic acid tert-butyl ester], in the assay with ARPE-19 cells, the “EMT induced by TGF-β (formation of cell aggregates)” value was “remarkably suppressed”. Besides, the “expression of α smooth muscle actin associated with the activation of liver Kupffer cells” value with liver Kupffer cells (Cy3-labeled anti-αSMA antibody, fluorescence microscope, FIG. 3) is “remarkably suppressed”. Further, the “cell morphology change caused by the activation of liver Kupffer cells” value in the assay on liver Kupffer cells (bright field, FIG. 2) was “suppressed”. The “mRNA expression level of α smooth muscle actin in the liver tissue” value in assay [1] is “significantly suppressed”.
